Test results published in patent US10150742B2, “Substituted heterocyclic compounds for treating or preventing viral infections” (President and Fellows of Harvard College, priority 2013, dated 2018).

How the values were obtained:
DENV2 [1] = experiment: Order-of-addition / post-infection treatment, single-cycle DENV2 yield in BHK21 cells by plaque-formation assay; type: cell-based; settings: for inhibition of DENV2 replication when added after infection: post-treatment of cells
Method: To examine the point(s) in the DENV infectious cycle affected by GNF-2, we performed order of addition experiments measuring the effect of GNF-2 when incubated with cells or virus prior to infection (PRE), when added at the time of infection (CO), or when added after the initial infection had been allowed to occur (POST). […] BHK21 cells were inoculated with DENV2 at a multiplicity of infection (MOI) of 1 and incubated for one-hour at 37° C. after which the inoculum was removed, the cells were washed, and fresh medium was added to limit infection to a single round. At twenty-four hours post-infection, corresponding to approximately one complete life cycle of DENV, the yield of infectious virions that had been released to the culture supernatant was quantified by plaque-formation assay (PFA) as a measure of successful DENV replication.

[2] = system: dengue virus serotype 2, DENV2; experiment: Reduction of DENV viral titer by kinase inhibitors and labelled GNF2 derivatives (cell-based); settings: for EC90: Dengue virus, DENV2, read-out: EC90 (dengue virus serotype 2, DENV2)
Method: In order to investigate the role of kinases on DENV entry, the order of addition of the cells, virus, and inhibitor was investigated. An inhibitor was either (i) contacted with a virus for 1 h at 37° C.; (ii) contacted with cells for 1 h at 37° C.; or (iii) contacted with a virus and cells for 1 h at 37° C. The cells were washed to remove virus and inhibitor. The washed cells were exposed to either DMSO or an inhibitor. Viral titer was measured at intervals post-infection by harvesting supernatants and measuring virus production by a plaque formation assay (PFA).

DENV = experiment: Association of DENV with liposomes; type: biochemical
Abl kinases = experiment: Abl kinase inhibition (IC50 kinase); type: biochemical
DENV2 [3] = experiment: DENV2 infectivity assay, compound pre-incubated with virus inoculum, viral yield by plaque formation assay; settings: treatment of the virus

Row | Compound | inhibition of DENV2 replication when added after infection (DENV2 [1]) | reduction of DENV viral titer [2] | EC90 [2] [nM] | association of DENV with liposomes (DENV) | IC50 (Abl kinases) [nM] | IC90 (concentration causing a 10-fold decrease in single-cycle viral yield) (DENV2 [1]; added to cells post-infection, BHK21, MOI 1, 24 h) [μM] | lowering of DV titer when pre-incubated with the virus, compared to DMSO control (DENV2 [3]) [log]
1 | Cc1ccc(NC(=O)c2ccc(CN3CCN(C)CC3)cc2)cc1Nc1nccc(-c2cccnc2)n1 [imatinib] | inhibited DENV2 replication | did not | 10000 |  |  |  | 
2 | NC(=O)c1cccc(-c2cc(Nc3ccc(OC(F)(F)F)cc3)ncn2)c1 [GNF-2] | inhibited DENV2 replication | over 1 log unit | ~1000 | does not block association | 138 ± 5 | 8 | ~1
